This is an account of results in patent publication US11149018B2, “Substituted N-arylethyl-2-aminoquinoline-4-carboxamides and use thereof” (Bayer Aktiengesellschaft, priority 2017, dated 2021).

The assay deals with FP receptor (Homo sapiens (Human), UniProt P43088). The assay is described as follows: In vitro test of inhibition of human FP receptor activity (PGF2α-induced calcium flux in FP-expressing CHEM1 cells). Type of assay: cell-based. As to conditions: PGF2α 2 nM, some mean values of multiple determinations. A digest of the protocol: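 FP antagonism in FP-expressing CHEM1 cells loaded with Fluo-8. Compound preincubated 10 min at 37° C, then receptor stimulated with 2 nM (final) PGF2α in calcium-free Tyrode with 2 mM CaCl2.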
Sequence of FP receptor (P43088 whole entry): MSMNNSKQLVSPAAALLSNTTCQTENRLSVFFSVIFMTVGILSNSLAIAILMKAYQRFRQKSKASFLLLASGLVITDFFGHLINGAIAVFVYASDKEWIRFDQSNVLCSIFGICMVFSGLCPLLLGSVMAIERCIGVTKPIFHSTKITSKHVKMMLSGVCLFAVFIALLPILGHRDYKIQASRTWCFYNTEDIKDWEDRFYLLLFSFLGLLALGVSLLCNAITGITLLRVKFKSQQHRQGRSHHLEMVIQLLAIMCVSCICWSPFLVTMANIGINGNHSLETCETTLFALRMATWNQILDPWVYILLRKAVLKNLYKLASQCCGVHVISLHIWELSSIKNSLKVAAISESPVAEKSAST

In the case of `Cc1c(N2CCCCO2)nc2ccc(Br)cc2c1C(=O)NCC(CCC(=O)O)c1ccccc1Cl` (racemic) [Example 32, (+/−)-5-({[6-Bromo-3-methyl-2-(1,2-oxazinan-2-yl)quinolin-4-yl]carbonyl}amino)-4-(2-chlorophenyl)pentanoic acid], the 50% inhibitory concentration (IC50) was found to be 0.048 µM.
With `Cc1c(N2CCCC(C)C2)nc2ccc(Br)cc2c1C(=O)NCC(CCC(=O)O)c1ccccc1C(F)(F)F` (single isomer, unassigned; (-)) [Example 200, (−)-5-[({6-Bromo-3-methyl-2-[3-methylpiperidin-1-yl]quinolin-4-yl}carbonyl)amino]-4-[2-(trifluoromethyl)phenyl]pentanoic acid], the half-maximal inhibitory concentration (IC50) came out at 0.017 µM.
On to `CCC1CCCN(c2nc3ccc(Br)cc3c(C(=O)NCC(CCC(=O)O)c3cc(F)ccc3F)c2C)C1` (single isomer, unassigned; (+)) [Example 227, (+)-5-[({6-Bromo-2-[3-ethylpiperidin-1-yl]-3-methylquinolin-4-yl}carbonyl)amino]-4-(2,5-difluorophenyl)pentanoic acid], for which the IC50 was 0.057 µM.
With “(+)-5-[({6-Bromo-3-methyl-2-[(^2H8)pyrrolidin-1-yl]quinolin-4-yl}carbonyl)amino]-4-[2-(trifluoromethyl)phenyl]pentanoic acid [Example 278]”, the IC50 was 0.034 µM.
Turning to `Cc1c(N2CCCO2)nc2ccc(Br)cc2c1C(=O)NCC(CCC(=O)O)c1ccccc1Cl` (single isomer, unassigned; (+)) [Example 40, (+)-5-({[6-Bromo-3-methyl-2-(1,2-oxazolidin-2-yl)quinolin-4-yl]carbonyl}amino)-4-(2-chlorophenyl)pentanoic acid], the IC50 worked out at 0.062 µM.
Regarding `Cc1ccccc1C(CCC(=O)O)CNC(=O)c1c(C)c(N2CCCC(F)(F)C2)nc2ccc(Br)cc12` (racemic) [Example 229, (+/−)-5-({[6-Bromo-2-(3,3-difluoropiperidin-1-yl)-3-methylquinolin-4-yl]carbonyl}amino)-4-(2-methylphenyl)pentanoic acid], the half-inhibitory concentration (IC50) is 0.013 µM.
Regarding `Cc1c(N2CCCCC2)nc2ccc(Br)cc2c1C(=O)NCC(CCC(=O)O)c1c(F)cccc1F` (single isomer, unassigned; (+)) [Example 245, (+)-5-({[6-Bromo-3-methyl-2-(piperidin-1-yl)quinolin-4-yl]carbonyl}amino)-4-(2,6-difluorophenyl)pentanoic acid], the IC50 is 0.027 µM.
With `Cc1c(N2CCCOCC2)nc2ccc(Br)cc2c1C(=O)NCC(CCC(=O)O)c1ccccc1Cl` (racemic) [Example 90, (+/−)-5-({[6-Bromo-3-methyl-2-(1,4-oxazepan-4-yl)quinolin-4-yl]carbonyl}amino)-4-(2-chlorophenyl)pentanoic acid], the IC50 turned out to be 0.059 µM.
The figure for `Cc1c(N2CCCCC2)nc2ccc(Br)cc2c1C(=O)NCC(CC(=O)O)c1c(F)cccc1Cl` (single isomer, unassigned; (-)) [Example 2, (−)-4-({[6-Bromo-3-methyl-2-(piperidin-1-yl)quinolin-4-yl]carbonyl}amino)-3-(2-chloro-6-fluorophenyl)butanoic acid] is 0.023 µM; for `Cc1c(N2CCCC(C(N)=O)C2)nc2ccc(Br)cc2c1C(=O)NCC(CCC(=O)O)c1ccccc1Cl` (centres unmarked) [Example 85, 5-[({6-Bromo-2-[3-carbamoylpiperidin-1-yl]-3-methylquinolin-4-yl}carbonyl)amino]-4-(2-chlorophenyl)pentanoic acid] it is 0.59 µM.
As for `Cc1c(N2CC(F)(F)C(F)(F)C2)nc2ccc(Br)cc2c1C(=O)NCC(CCC(=O)O)c1ccccc1Cl` (racemic) [Example 72, (+/−)-5-({[6-Bromo-3-methyl-2-(3,3,4,4-tetrafluoropyrrolidin-1-yl)quinolin-4-yl]carbonyl}amino)-4-(2-chlorophenyl)pentanoic acid], the figure is 0.08 µM; as for “(+)-5-({[6-Bromo-3-methyl-2-(piperidin-1-yl)quinolin-4-yl]carbonyl}amino)-4-(2,3,6-trichlorophenyl)pentanoic acid [Example 175]”, 0.16 µM; as for `Cc1c(N2CCCC(F)(F)C2)nc2ccc(Br)cc2c1C(=O)NCC(CCC(=O)O)c1ccccc1C(F)(F)F` (single isomer, unassigned; (+)) [Example 119, (+)-5-({[6-Bromo-2-(3,3-difluoropiperidin-1-yl)-3-methylquinolin-4-yl]carbonyl}amino)-4-[2-(trifluoromethyl)phenyl]pentanoic acid], 0.014 µM.
As for `Cc1c(N2CCCC(F)(F)C2)nc2ccc(Br)cc2c1C(=O)NCC(CCC(=O)O)c1c(F)cccc1F` (single isomer, unassigned; (-)) [Example 252, (−)-5-({[6-Bromo-2-(3,3-difluoropiperidin-1-yl)-3-methylquinolin-4-yl]carbonyl}amino)-4-(2,6-difluorophenyl)pentanoic acid], the figure is 0.0094 µM; as for `Cc1c(N2CCCC(F)C2)nc2ccc(Br)cc2c1C(=O)NCC(CCC(=O)O)c1ccccc1OC(F)(F)F` (single isomer, unassigned; (-)) [Example 202, (−)-5-[({6-Bromo-2-[3-fluoropiperidin-1-yl]-3-methylquinolin-4-yl}carbonyl)amino]-4-[2-(trifluoromethoxy)phenyl]pentanoic acid], 0.0017 µM.
Turning to `CCC1CCCN(c2nc3ccc(Br)cc3c(C(=O)NCC(CCC(=O)O)c3c(F)cccc3C(F)(F)F)c2C)C1` (centres unmarked) [Example 170, 5-[({6-Bromo-2-[3-ethylpiperidin-1-yl]-3-methylquinolin-4-yl}carbonyl)amino]-4-[2-fluoro-6-(trifluoromethyl)phenyl]pentanoic acid], the IC50 was 0.0027 µM.
Consider `COC1CCN(c2nc3ccc(Br)cc3c(C(=O)NCC(CCC(=O)O)c3ccccc3Cl)c2C)C1` (centres unmarked) [Example 41, 5-[({6-Bromo-2-[3-methoxypyrrolidin-1-yl]-3-methylquinolin-4-yl}carbonyl)amino]-4-(2-chlorophenyl)pentanoic acid], for which the IC50 stood at 0.43 µM.
As for `COc1ccccc1C(CCC(=O)O)CNC(=O)c1c(C)c(N2CCCCCC2)nc2ccc(Br)cc12` (single isomer, unassigned; (+)) [Example 239, (+)-5-({[2-(Azepan-1-yl)-6-bromo-3-methylquinolin-4-yl]carbonyl}amino)-4-(2-methoxyphenyl)pentanoic acid], the IC50 amounted to 0.0014 µM.
In the case of `Cc1c(N2CCCC2)nc2ccc(Br)cc2c1C(=O)NCC(CCC(=O)O)c1ccccc1C(F)(F)F` (single isomer, unassigned; (-)) [Example 116, (−)-5-({[6-Bromo-3-methyl-2-(pyrrolidin-1-yl)quinolin-4-yl]carbonyl}amino)-4-[2-(trifluoromethyl)phenyl]pentanoic acid], the 50% inhibitory concentration (IC50) was 0.0046 µM.
On to `Cc1c(N2CCCC(F)(F)C2)nc2ccc(Br)cc2c1C(=O)NCC(CCC(=O)O)c1c(Cl)ccc(Cl)c1Cl` (racemic) [Example 177, (+/−)-5-({[6-Bromo-2-(3,3-difluoropiperidin-1-yl)-3-methylquinolin-4-yl]carbonyl}amino)-4-(2,3,6-trichlorophenyl)pentanoic acid], for which the IC50 came out at 0.01 µM.
